# In ChEMBL document CHEMBL2086342, “Synthesis and preliminary bioevaluation of novel E-ring modified acetal analog of camptothecin as cytotoxic agents” (Eur J Med Chem, 2012):
# Calls of active or inactive are those of the source. The rule behind the calls is not given here.
# Legend:
# HCT-116 = test: Antiproliferative activity against human HCT116 cells after 3 days by MTT assay; assay type: functional, cell-based; details: HCT-116, 72 h
# MDA-MB-435 = test: Antiproliferative activity against human MDA-MB-435 cells after 3 days by MTT assay; assay type: functional, cell-based; details: MDA-MB-435, 72 h
# A549 [1] = test: Antiproliferative activity against human A549 cells after 3 days by MTT assay; assay type: functional, cell-based; details: A549, 72 h
# Bos taurus [2] = species on record: Bos taurus; test: Inhibition of calf thymus DNA topoisomerase 1-mediated relaxation of supercoiled DNA pBR322 assessed as appearance of short DNA fragment at 100 uM after 15 mins by agarose gel electrophoresis
# Mus musculus [3] = test: Toxicity in human A549 cells xenografted in BALB/c mouse assessed as reduction in body weight at 0.5 mg/kg, iv qd for 5 days measured after 14 days; assay type: organism-based; set-up: dose 0.5 mg/kg, route intravenous; details: in vivo, 336 h
# A549 [4] = test: Antitumor activity against human A549 cells xenografted in BALB/c mouse assessed as decrease in tumor weight at 0.5 mg/kg, iv qd for 5 days measured after 14 days relative to control; assay type: functional; details: read-out: TGI
# Mus musculus [5] = test: Toxicity in human A549 cells xenografted in BALB/c mouse assessed as mortality at 0.5 mg/kg, iv qd for 5 days measured after 14 days; assay type: organism-based; set-up: dose 0.5 mg/kg, route intravenous; details: in vivo, 336 h
# A549 [6] = test: Induction of apoptosis in human A549 cells at 5 uM after 48 hrs by annexinV and propidium iodide dual stain based flow cytometry analysis relative to control; assay type: functional
# Mus musculus [7] = test: Toxicity in human A549 cells xenografted in BALB/c mouse assessed as mortality at 2 mg/kg, ip qd for 5 days measured after 14 days; assay type: organism-based; set-up: dose 2 mg/kg, route intraperitoneal; details: in vivo, 336 h
# Mus musculus [8] = test: Toxicity in human A549 cells xenografted in BALB/c mouse assessed as reduction in body weight at 2 mg/kg, ip qd for 5 days measured after 14 days; assay type: organism-based; set-up: dose 2 mg/kg, route intraperitoneal; details: in vivo, 336 h
# A549 [9] = test: Induction of apoptosis in human A549 cells assessed as morphological change at 5 uM after 48 hrs by phase contrast microscopy analysis; assay type: functional, cell-based
# A549 [10] = test: Antitumor activity against human A549 cells xenografted in BALB/c mouse assessed as decrease in tumor weight at 2 mg/kg, ip qd for 5 days measured after 14 days relative to control; assay type: functional; details: route intraperitoneal, read-out: TGI
# Bos taurus [11] = species on record: Bos taurus; test: Inhibition of calf thymus DNA topoisomerase 1-mediated relaxation of supercoiled DNA pBR322 assessed as appearance of short DNA fragment at 1 to 50 uM after 15 mins by agarose gel electrophoresis
# Mus musculus [12] = test: Toxicity in human A549 cells xenografted in BALB/c mouse assessed as gross abnormalities at 2 mg/kg, ip qd for 5 days measured after 14 days by necropsy analysis; assay type: organism-based; set-up: dose 2 mg/kg, route intraperitoneal; details: in vivo, 336 h
# ZR-75-30 = test: Antiproliferative activity against human ZR75-30 cells after 3 days by MTT assay; assay type: functional, cell-based; details: ZR-75-30, 72 h
# MRC5 = test: Antiproliferative activity against human MRC5 cells after 3 days by MTT assay; assay type: cell-based; details: mrc5, 72 h
# Bos taurus [13] = species on record: Bos taurus; test: Inhibition of calf thymus DNA topoisomerase 1-mediated relaxation of supercoiled DNA pBR322 assessed as appearance of short DNA fragment after 15 mins by agarose gel electrophoresis
SMILES,IC50 (HCT-116) [nM],IC50 (MDA-MB-435) [nM],IC50 (A549 [1]) [nM],inhibition (Bos taurus [2]),also measured
CC[C@]1(O)c2cc3n(c(=O)c2CO[C@H]1OC)Cc1cc2ccccc2nc1-3,532,3670,420,Active,–
CCCCCO[C@@H]1OCc2c(cc3n(c2=O)Cc2cc4ccccc4nc2-3)[C@@]1(O)CC,127,10600,678,–,–
CC[C@]1(O)c2cc3n(c(=O)c2CO[C@H]1OC(C)COC)Cc1cc2ccccc2nc1-3 (stereo partly drawn),117,2740,8380,–,–
CC[C@]1(O)c2cc3n(c(=O)c2CO[C@H]1OC(=O)CCC(=O)O)Cc1cc2ccccc2nc1-3,264,1320,308,–,–
CCOCCO[C@@H]1OCc2c(cc3n(c2=O)Cc2cc4c([N+](=O)[O-])cccc4nc2-3)[C@@]1(O)CC,56.9,1080,5690,–,–
CC[C@@]1(O)C(=O)OCc2c1cc1n(c2=O)Cc2cc3c(CN(C)C)c(O)ccc3nc2-1 [TOPOTECAN],88.9,917,2800,–,Activity (Mus musculus [3]): 15.15 g; inhibition in vivo at 0.5 mg/kg (A549 [4]): 57.5%; Activity (Mus musculus [5]): Non-toxic
CCCCO[C@@H]1OCc2c(cc3n(c2=O)Cc2cc4ccccc4nc2-3)[C@@]1(O)CC,95100,> 100000,> 100000,Active,–
CC[C@]1(O)c2cc3n(c(=O)c2CO[C@H]1OC(C)C)Cc1cc2ccccc2nc1-3,11500,> 100000,> 100000,–,–
CCO[C@@H]1OCc2c(cc3n(c2=O)Cc2cc4ccccc4nc2-3)[C@@]1(O)CC,406,6250,322,Active,–
CCCO[C@@H]1OCc2c(cc3n(c2=O)Cc2cc4ccccc4nc2-3)[C@@]1(O)CC,517,12700,323,–,–
CC[C@]1(O)c2cc3n(c(=O)c2CO[C@H]1OCC(F)(F)C(F)(F)F)Cc1cc2ccccc2nc1-3,73,606,302,–,–
CCCCc1c2c(nc3ccccc13)-c1cc3c(c(=O)n1C2)CO[C@@H](OCCOCC)[C@]3(O)CC,1,223,598,Active,Activity (A549 [6]): 0.5%; Activity (Mus musculus [7]): Non-toxic; Activity (Mus musculus [8]): 21.09 g; Activity (A549 [9]): Active; inhibition in vivo at 2 mg/kg (A549 [10]): 27%; inhibition (Bos taurus [11]): inactive; Activity (Mus musculus [12]): Non-toxic; IC50 (ZR-75-30): 122 nM; Activity (MRC5): Non-toxic
CC[C@]1(O)c2cc3n(c(=O)c2CO[C@H]1OCC(F)(F)F)Cc1cc2ccccc2nc1-3,309,2300,5970,Active,–
CC[C@]1(O)c2cc3n(c(=O)c2CO[C@@H]1OC)Cc1cc2ccccc2nc1-3,8170,56400,8800,–,–
CCOCCO[C@@H]1OCc2c(cc3n(c2=O)Cc2cc4ccccc4nc2-3)[C@@]1(O)CC,90.2,469,2580,Active,Activity (Mus musculus [7]): Non-toxic; Activity (Mus musculus [8]): 20.98 g; inhibition in vivo at 2 mg/kg (A549 [10]): 35%; Activity (Mus musculus [12]): Non-toxic
CC[C@]1(O)c2cc3n(c(=O)c2CO[C@H]1OCCOC)Cc1cc2ccccc2nc1-3,333,4920,5190,Active,–
CCC(C)O[C@@H]1OCc2c(cc3n(c2=O)Cc2cc4ccccc4nc2-3)[C@@]1(O)CC (stereo partly drawn),> 100000,> 100000,> 100000,–,–
CCOCCO[C@@H]1OCc2c(cc3n(c2=O)Cc2cc4cc(OC)ccc4nc2-3)[C@@]1(O)CC,1,210,838,Active,inhibition (Bos taurus [11]): inactive
CC[C@@]1(O)C(=O)OCc2c1cc1n(c2=O)Cc2cc3ccccc3nc2-1 [CAMPTOTHECIN],110,43.6,2610,–,inhibition (Bos taurus [13]): Dose-dependent effect
CC[C@]1(O)c2cc3n(c(=O)c2CO[C@H]1OCC(C)C)Cc1cc2ccccc2nc1-3,210,7900,394,–,–
CC[C@]1(O)c2cc3n(c(=O)c2CO[C@H]1OCCF)Cc1cc2ccccc2nc1-3,249,1330,6310,Active,–
CCOCC(C)O[C@@H]1OCc2c(cc3n(c2=O)Cc2cc4ccccc4nc2-3)[C@@]1(O)CC (stereo partly drawn),236,2520,7400,–,–
